Measurements: ChEMBL document CHEMBL3098019, “Structure-based screening for the discovery of new carbonic anhydrase VII inhibitors” (Eur J Med Chem, 2014)

Experiments:
Carbonic anhydrase 2 = Carbonic anhydrase 2 (Homo sapiens, UniProt P00918); assay: Inhibition of human recombinant carbonic anhydrase 2 preincubated for 15 mins by stopped flow CO2 hydration assay
Carbonic anhydrase 14 = Carbonic anhydrase 14 (Homo sapiens, UniProt Q9ULX7); assay: Inhibition of human recombinant carbonic anhydrase 14 preincubated for 15 mins by stopped flow CO2 hydration assay
Chain of Carbonic anhydrase 14 (Q9ULX7 whole entry): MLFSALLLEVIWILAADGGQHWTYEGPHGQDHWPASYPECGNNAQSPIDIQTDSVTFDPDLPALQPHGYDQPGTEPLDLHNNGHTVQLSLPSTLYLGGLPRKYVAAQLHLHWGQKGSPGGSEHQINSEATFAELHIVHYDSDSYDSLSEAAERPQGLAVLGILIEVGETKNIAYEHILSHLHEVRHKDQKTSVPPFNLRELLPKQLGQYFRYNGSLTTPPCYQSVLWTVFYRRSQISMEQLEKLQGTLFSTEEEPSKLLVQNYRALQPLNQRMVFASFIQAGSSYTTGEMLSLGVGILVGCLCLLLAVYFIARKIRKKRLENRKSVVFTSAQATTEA

Carbonic anhydrase 9 = Carbonic anhydrase 9 (Homo sapiens, UniProt Q16790)
Description: Inhibition of human catalytic domain of carbonic anhydrase 9 preincubated for 15 mins by stopped flow CO2 hydration assay

Carbonic anhydrase 1 = Carbonic anhydrase 1 (Homo sapiens, UniProt P00915); assay: Inhibition of human recombinant carbonic anhydrase 1 preincubated for 15 mins by stopped flow CO2 hydration assay
Chain of Carbonic anhydrase 1 (P00915 whole entry): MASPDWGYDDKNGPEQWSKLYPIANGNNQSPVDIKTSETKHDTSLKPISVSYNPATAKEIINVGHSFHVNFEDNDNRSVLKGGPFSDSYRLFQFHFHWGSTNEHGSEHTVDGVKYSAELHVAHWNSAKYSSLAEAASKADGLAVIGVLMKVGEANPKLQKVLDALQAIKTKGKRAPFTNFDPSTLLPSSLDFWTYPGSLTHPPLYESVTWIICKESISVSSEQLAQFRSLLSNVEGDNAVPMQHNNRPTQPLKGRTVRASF

Structure (SMILES) | Ki (Carbonic anhydrase 2) [nM] | Ki (Carbonic anhydrase 14) [nM] | Ki (Carbonic anhydrase 9) [nM] | Ki (Carbonic anhydrase 1) [nM]
NS(=O)(=O)Cc1ccc(NC(=O)C2CC=CCC2)cc1 (configuration not stated) | 73.2 | 7.6 | 53.2 | 8.9
NS(=O)(=O)Cc1ccc(NS(=O)(=O)c2ccc(Br)cc2Cl)cc1 | 6.3 | 19.4 |  | 8.6
